Where two headings read alike, the source gives them in different places.
Legend:
[1] = biological target: T1, Human Calpain 1/NS1 (Homo sapiens, UniProt P07384); assay: Calpain inhibition continuous fluorescence (FRET) assay, Human Calpain 1/NS1; type: biochemical; details: read-out: Human Calpain 1/NS1 IC50
T1 sequence (P07384 1-714): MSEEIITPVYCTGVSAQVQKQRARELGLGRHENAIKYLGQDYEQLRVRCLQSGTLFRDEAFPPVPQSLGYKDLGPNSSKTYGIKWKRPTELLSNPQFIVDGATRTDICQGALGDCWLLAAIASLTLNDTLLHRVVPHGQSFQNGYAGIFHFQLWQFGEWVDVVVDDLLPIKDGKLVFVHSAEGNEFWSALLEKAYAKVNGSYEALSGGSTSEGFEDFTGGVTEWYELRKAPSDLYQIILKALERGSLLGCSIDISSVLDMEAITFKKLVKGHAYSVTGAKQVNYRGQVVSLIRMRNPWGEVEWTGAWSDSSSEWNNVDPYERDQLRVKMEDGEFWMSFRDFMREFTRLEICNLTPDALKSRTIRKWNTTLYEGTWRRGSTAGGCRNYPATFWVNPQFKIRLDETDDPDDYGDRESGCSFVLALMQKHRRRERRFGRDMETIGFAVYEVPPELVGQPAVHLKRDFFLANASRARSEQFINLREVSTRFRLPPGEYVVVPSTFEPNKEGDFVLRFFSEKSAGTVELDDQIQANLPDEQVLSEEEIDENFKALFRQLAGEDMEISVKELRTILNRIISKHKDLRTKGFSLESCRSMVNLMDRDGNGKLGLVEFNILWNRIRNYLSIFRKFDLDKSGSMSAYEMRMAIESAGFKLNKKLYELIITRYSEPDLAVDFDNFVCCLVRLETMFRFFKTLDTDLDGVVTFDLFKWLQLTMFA
T1 sequence (P04632 1-268 partner): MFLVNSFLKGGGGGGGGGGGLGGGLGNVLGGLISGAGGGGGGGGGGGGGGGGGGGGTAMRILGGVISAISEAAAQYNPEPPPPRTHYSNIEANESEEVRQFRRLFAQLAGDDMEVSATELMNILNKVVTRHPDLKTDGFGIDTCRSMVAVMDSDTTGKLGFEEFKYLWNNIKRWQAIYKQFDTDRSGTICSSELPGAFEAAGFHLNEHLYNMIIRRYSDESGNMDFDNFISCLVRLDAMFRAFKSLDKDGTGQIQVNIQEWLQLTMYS
Procedure, shortened: (§1)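 Calpain activity is measured kinetically with a quenched FRET peptide in 50 mM Tris pH 7.5, 100 mM NaCl, 1 mM DTT, with CaCl2 triggering activation. Rates over 1-5 min are plotted against log inhibitor to obtain IC50 by 4-parameter logistic fitting.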

[2] = biological target: T2, Human Calpain 2/NS1 (Homo sapiens, UniProt P17655); assay: Calpain inhibition continuous fluorescence (FRET) assay, Human Calpain 2/NS1; type: biochemical; details: read-out: Human Calpain 2/NS1 IC50
T2 sequence (P17655 1-700): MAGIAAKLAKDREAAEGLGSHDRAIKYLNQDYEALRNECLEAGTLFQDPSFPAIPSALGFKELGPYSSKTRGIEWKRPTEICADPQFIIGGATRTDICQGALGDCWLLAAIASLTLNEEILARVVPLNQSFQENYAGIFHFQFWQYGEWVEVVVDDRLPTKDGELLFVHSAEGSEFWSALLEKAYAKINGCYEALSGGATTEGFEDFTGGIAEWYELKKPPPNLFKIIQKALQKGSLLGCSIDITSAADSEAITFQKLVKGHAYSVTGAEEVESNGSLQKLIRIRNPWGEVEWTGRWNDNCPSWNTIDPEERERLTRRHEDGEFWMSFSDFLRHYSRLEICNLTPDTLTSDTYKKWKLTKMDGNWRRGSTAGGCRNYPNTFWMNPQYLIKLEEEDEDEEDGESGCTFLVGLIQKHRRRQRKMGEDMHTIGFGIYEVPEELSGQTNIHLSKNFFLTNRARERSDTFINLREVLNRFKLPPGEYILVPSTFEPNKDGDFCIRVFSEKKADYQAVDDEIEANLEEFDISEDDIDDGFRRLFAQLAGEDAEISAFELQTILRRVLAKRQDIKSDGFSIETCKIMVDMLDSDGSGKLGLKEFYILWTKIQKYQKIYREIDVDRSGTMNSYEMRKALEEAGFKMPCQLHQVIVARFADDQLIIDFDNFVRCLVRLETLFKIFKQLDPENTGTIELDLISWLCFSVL
T2 sequence (P04632 1-268 partner): T1 sequence (P04632 1-268 partner)
Procedure, shortened: as §1

[3] = biological target: T3, Human Calpain 9/NS1 (Homo sapiens, UniProt O14815); assay: Calpain inhibition continuous fluorescence (FRET) assay, Human Calpain 9/NS1; type: biochemical; details: read-out: Human Calpain 9/NS1 IC50
T3 sequence (O14815 1-690): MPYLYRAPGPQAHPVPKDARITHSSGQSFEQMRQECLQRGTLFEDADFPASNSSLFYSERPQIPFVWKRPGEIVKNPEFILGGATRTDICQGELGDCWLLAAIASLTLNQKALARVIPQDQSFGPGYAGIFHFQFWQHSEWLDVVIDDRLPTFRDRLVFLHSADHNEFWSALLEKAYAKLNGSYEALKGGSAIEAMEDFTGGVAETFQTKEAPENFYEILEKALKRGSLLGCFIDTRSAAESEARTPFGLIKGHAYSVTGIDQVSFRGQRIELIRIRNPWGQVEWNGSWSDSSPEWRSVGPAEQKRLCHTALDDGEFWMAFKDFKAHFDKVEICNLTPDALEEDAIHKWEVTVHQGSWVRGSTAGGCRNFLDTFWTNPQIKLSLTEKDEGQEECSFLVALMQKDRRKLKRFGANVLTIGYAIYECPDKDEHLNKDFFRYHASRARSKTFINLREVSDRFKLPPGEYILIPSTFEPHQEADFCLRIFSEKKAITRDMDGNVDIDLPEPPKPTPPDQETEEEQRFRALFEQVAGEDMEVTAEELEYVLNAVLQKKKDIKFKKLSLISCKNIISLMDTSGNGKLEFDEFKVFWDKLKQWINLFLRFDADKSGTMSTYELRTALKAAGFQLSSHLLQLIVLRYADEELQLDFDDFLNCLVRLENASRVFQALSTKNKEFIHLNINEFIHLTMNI
T3 sequence (P04632 1-268 partner): T1 sequence (P04632 1-268 partner)
Procedure, shortened: as §1

[4] = tested on: Calpain activity in SH-SY5Y cells (SBDP-150); assay: SH-SY5Y Spectrin western blot assay (SBDP-150 breakdown product, A23187-induced); type: cell-based; details: Homo sapiens, SH-SY5Y cells, read-out: SH-SY5Y Spectrin IC50
[5] = tested on: Calpain activity in SH-SY5Y cells; assay: SH-SY5Y + AMC fluorescence assay (Suc-LLVY-AMC substrate); type: cell-based; details: read-out: SH-SY5Y + AMC IC50
[6] = Column D, A23187-induced SBDP-150
[7] = A23187-induced SBDP-150, western blot

| Structure (SMILES) | IC50 ([1]; Column A) [µM] | IC50 ([2]; Column B) [µM] | IC50 ([3]; Column C) [µM] | IC50 [4, 6] [µM] | IC50 ([5]; Column E) [µM] | IC50 [1] [µM] | IC50 [2] [µM] | IC50 [3] [µM] | IC50 [4, 7] [µM] | IC50 [5] [µM] |
| --- | --- | --- | --- | --- | --- | --- | --- | --- | --- | --- |
| Cn1cc(C(=O)N[C@@H](Cc2ccccc2)C(=O)C(N)=O)c(-c2cccnc2)n1 [Compound 188, (S)—N-(4-amino-3,4-dioxo-1-phenylbutan-2-yl)-1-methyl-3-(pyridin-3-yl)-1H-pyrazole-4-carboxamide] | < 3 | < 3 | < 3 | 10 to 25 | > 25 | – | – | – | – | – |
| Cc1c(C(=O)NC(Cc2ccccc2)C(=O)C(N)=O)c(-c2ccccc2)nn1C (stereo not drawn) [Compound 583] | – | – | – | – | – | < 3 | < 3 | < 3 | > 25 | > 25 |
| Cc1cccc(-c2cccc(-n3nc(C)cc3C(=O)N[C@@H](Cc3ccccc3)C(=O)C(N)=O)c2)c1 [Compound 105, (S)—N-(4-amino-3,4-dioxo-1-phenylbutan-2-yl)-3-methyl-1-(3′-methyl-[1,1′-biphenyl]-3-yl)-1H-pyrazole-5-carboxamide] | < 3 | < 3 | < 3 | > 25 | > 25 | – | – | – | – | – |
| Cc1cc(C(=O)NC(Cc2ccccc2)C(=O)C(=O)NC2CC2)n(-c2cnccn2)n1 (stereo not drawn) [Compound 454, N-(4-(cyclopropylamino)-3,4-dioxo-1-phenylbutan-2-yl)-3-methyl-1-(pyrazin-2-yl)-1H-pyrazole-5-carboxamide] | – | – | – | – | – | < 3 | < 3 | 3 to 10 | 10 to 25 | < 10 |
| Cc1noc(-c2ccccc2)c1C(=O)N[C@@H](Cc1ccc(O)cc1)C(=O)C(N)=O [Compound 492, (S)—N-(4-amino-1-(4-hydroxyphenyl)-3,4-dioxobutan-2-yl)-3-methyl-5-phenylisoxazole-4-carboxamide] | – | – | – | – | – | < 3 | < 3 | < 3 | 10 to 25 | > 25 |
| Cn1cc(C(=O)NC(C=O)Cc2ccccc2)c(-c2ccccc2F)n1 (stereo not drawn) [Compound 520, 3-(2-Fluorophenyl)-1-methyl-N-(1-oxo-3-phenylpropan-2-yl)-1H-pyrazole-4-carboxamide] | – | – | – | – | – | < 3 | < 3 | < 3 | > 25 | 10 to 25 |
| Cn1ncc(C(=O)N[C@@H](Cc2ccccc2)C(=O)C(N)=O)c1-c1ccncn1 [Compound 175, (S)—N-(4-amino-3,4-dioxo-1-phenylbutan-2-yl)-1-methyl-5-(pyrimidin-4-yl)-1H-pyrazole-4-carboxamide] | < 3 | < 3 | < 3 | > 25 | < 10 | – | – | – | – | – |
| Cn1cc(C(=O)NC(Cc2ccccc2)C(=O)C(N)=O)c(-c2ccc3ccccc3n2)n1 (stereo not drawn) [Compound 587, N-(4-amino-3,4-dioxo-1-phenylbutan-2-yl)-1-methyl-3-(quinolin-2-yl)-1H-pyrazole-4-carboxamide] | – | – | – | – | – | < 3 | < 3 | 3 to 10 | > 25 | > 25 |
| Cn1cc(C(=O)N[C@@H](Cc2ccccc2)C(=O)C(=O)NCc2ncco2)c(-c2ccccc2)n1 [Compound 334, (S)-1-methyl-N-(4-((oxazol-2-ylmethyl)amino)-3,4-dioxo-1-phenylbutan-2-yl)-3-phenyl-1H-pyrazole-4-carboxamide] | – | – | – | – | – | < 3 | < 3 | < 3 | > 25 | < 10 |
| Cc1ccccc1-c1oncc1C(=O)NC(Cc1ccccc1)C(=O)C(N)=O (stereo not drawn) [Compound 557, N-(4-amino-3,4-dioxo-1-phenylbutan-2-yl)-5-(o-tolyl)isoxazole-4-carboxamide] | – | – | – | – | – | < 3 | < 3 | < 3 | > 25 | < 10 |
| NC(=O)C(=O)C(Cc1ccccc1)NC(=O)c1cn(C(F)F)nc1-c1cccc2c1OC(F)(F)O2 (stereo not drawn) [Compound 546, N-(4-amino-3,4-dioxo-1-phenylbutan-2-yl)-3-(2,2-difluorobenzo[d][1,3]dioxol-4-yl)-1-(difluoromethyl)-1H-pyrazole-4-carboxamide] | – | – | – | – | – | < 3 | < 3 | < 3 | < 10 | < 10 |
| Cc1cc(C(=O)N[C@@H](Cc2ccccc2)C(=O)C(N)=O)n(-c2ccc(COCc3ccccc3)cc2)n1 [Compound 228, (S)—N-(4-amino-3,4-dioxo-1-phenylbutan-2-yl)-1-(4-((benzyloxy)methyl)phenyl)-3-methyl-1H-pyrazole-5-carboxamide] | < 3 | < 3 | < 3 | < 10 | > 25 | – | – | – | – | – |
| Cc1cc(C(=O)N[C@@H](Cc2ccccc2)C(=O)C(N)=O)n(-c2cccc(CNC(=O)CCc3ccccc3)c2)n1 [Compound 142, (S)—N-(4-amino-3,4-dioxo-1-phenylbutan-2-yl)-3-methyl-1-(3-((3-phenylpropanamido)methyl)phenyl)-1H-pyrazole-5-carboxamide] | < 3 | < 3 | < 3 | 10 to 25 | < 10 | – | – | – | – | – |
| C#CC[C@H](NC(=O)c1cn(C)nc1-c1ccccc1F)C(=O)C(N)=O [Compound 574, (S)—N-(1-amino-1,2-dioxohex-5-yn-3-yl)-3-(2-fluorophenyl)-1-methyl-1H-pyrazole-4-carboxamide] | – | – | – | – | – | < 3 | < 3 | < 3 | > 25 | > 25 |
| Cc1ccc(-c2ccc(-n3nc(C)cc3C(=O)N[C@@H](Cc3ccccc3)C(=O)C(N)=O)cc2)cc1 [Compound 130] | < 3 | < 3 | < 3 | < 10 | > 25 | – | – | – | – | – |

— patent publication US11339130B1 (Blade Therapeutics, Inc., priority 2016, dated 2022)
